Assay results published in patent US20230263956A1, “INGESTIBLE DRUG DELIVERY DEVICE” (Massachusetts Institute of Technology, priority 2020, published 2023).

Experiment: In vivo testing: tethered device jetting insulin into the stomach wall
Set-up: species or system Yorkshire pigs
Conditions: jet of insulin into stomach wall, 0.5 Units per kilogram, three of the five device tests, samples until two hours after deployment
Description: Studies were performed by trained veterinary technicians at MIT's animal testing facilities. Yorkshire pigs weighing between 70 and 90 kg were used. All studies were terminal studies (meaning the animal was euthanized immediately afterward). […] The testing protocol is described further below.
This formulation procedure was carried out the morning or evening before each in vivo study, and the resulting solution it was stored at 4° C. until the time of administration.
The device was loaded with API and CO2 in the operating room where the animal was sedated and intubated. The device was deployed either by direct placement into the stomach through a laparotomy, or via an over-tube with an endoscope and snare. Of the five deployments performed with this device, the first three were performed by laparotomy, and the latter two by endoscope. Triggering generally occurred within 15 minutes and could be identified through recoil and minor foaming near the base of the device.
Blood samples were collected by ear catheter or femoral catheter. […] The blood-glucose level was monitored at each draw using commercial glucose monitoring strips. […] The samples were then subsequently analyzed with a custom Ezyme-linked immunosorbent assay (ELISA) for […].

Q: With insulin as the substance, how does the blood glucose levels read?
A: The blood glucose levels was “drop in blood glucose levels”.
